Data: ChEMBL document CHEMBL5303304, “EUbOPEN Chemogenomics Library - IncuCyte” (2023)

What was measured:
Type in all cases: toxicity, cell-based
HEK-293T = test: Incucyte cell viability with HEK293T; conditions: human, 10 µM, compound concentration 10 uM
Fibroblast = test: Incucyte cell viability with human fibroblast; conditions: 10 µM, compound concentration 10 uM
U2OS = test: Incucyte cell viability with U2OS; conditions: human, 10 µM, compound concentration 10 uM
Note: unitless GR value; below 1 slowed growth and below 0 cell loss.

Row | Structure (SMILES) | Growth Rate (HEK-293T; 6 h, replicate number 1) | Growth Rate (HEK-293T; 6 h, replicate number 2) | Growth Rate (HEK-293T; 12 h, replicate number 1) | Growth Rate (HEK-293T; 12 h, replicate number 2) | Growth Rate (HEK-293T; 18 h, replicate number 1) | Growth Rate (HEK-293T; 18 h, replicate number 2) | Growth Rate (HEK-293T; 24 h, replicate number 1) | Growth Rate (HEK-293T; 24 h, replicate number 2) | Growth Rate (Fibroblast; 18 h, replicate number 1) | Growth Rate (Fibroblast; 24 h, replicate number 2) | Growth Rate (U2OS; 0 h, replicate number 1) | Growth Rate (U2OS; 0 h, replicate number 2) | Growth Rate (U2OS; 6 h, replicate number 2) | Growth Rate (U2OS; 12 h, replicate number 2) | Growth Rate (U2OS; 18 h, replicate number 2) | Growth Rate (U2OS; 24 h, replicate number 2) | Growth Rate (HEK-293T; 0 h, replicate number 2) | Growth Rate (U2OS; 6 h, replicate number 1) | Growth Rate (U2OS; 18 h, replicate number 1) | Growth Rate (Fibroblast; 6 h, replicate number 1) | further results
1 | Cl.Cl.O=C1c2ccccc2C(Cc2ccncc2)(Cc2ccncc2)c2ccccc21 | 0.32 | 0.89 | 0.55 | 0.97 | 0.62 | 0.63 | 0.6 | 0.63 | 0.1 | 0.89 | -0.47 | -0.7 | 0.24 | 0.75 | 0.92 | 0.88 |  |  |  |  | Growth Rate (Fibroblast; 12 h, replicate number 1): -1
2 | Oc1c(CN2CCCC2)cc(COCc2ccccc2)c2cccnc12 | 0.34 | 0.05 | -0.04 | -0.05 | -0.09 | -0.21 | -0.18 | -0.25 | 0.96 | 0.6 | 0.25 |  | 0.91 | 0.58 | 0.56 | 0.54 | -0.99 | 0.93 | 0.93 |  | Growth Rate (Fibroblast; 0 h, replicate number 1): 0.87; Growth Rate (Fibroblast; 24 h, replicate number 1): 0.83; Growth Rate (U2OS; 12 h, replicate number 1): 0.55; Growth Rate (U2OS; 24 h, replicate number 1): 0.79
3 | Nc1nccc(-c2ccn3c(N)nccc23)n1 |  |  |  |  |  |  | 0.97 |  | 0.49 |  |  | -0.76 |  |  |  |  | -0.48 |  | 0.84 | 0.9 | Growth Rate (HEK-293T; 0 h, replicate number 1): -0.56; Growth Rate (Fibroblast; 0 h, replicate number 1): 0.88; Growth Rate (Fibroblast; 12 h, replicate number 1): -0.17; Growth Rate (U2OS; 12 h, replicate number 1): 0.76
4 | CC(F)(F)CN1C(=O)c2[nH]nc(-c3cccc4[nH]c(=O)oc34)c2C1c1ccc(Oc2cc(C(F)(F)F)cc(C(F)(F)F)c2)cc1 (stereo unspecified) |  |  |  | 0.76 | 0.83 | 0.68 | 0.78 | 0.75 | 0.98 |  |  |  |  |  |  |  | -0.56 |  |  | 0.84 | Growth Rate (HEK-293T; 0 h, replicate number 1): 0.14; Growth Rate (Fibroblast; 0 h, replicate number 2): -0.97; Growth Rate (Fibroblast; 24 h, replicate number 1): 0.96; Growth Rate (U2OS; 24 h, replicate number 1): 0.88
5 | Cn1ncnc1COc1nn2c(-c3cc(F)ccc3F)nnc2cc1C(C)(C)C |  | 0.37 | 0.42 | 0.63 | 0.42 | 0.77 | 0.28 | 0.88 |  | 0.57 |  |  |  | 0.78 | 0.76 | 0.76 | 0.38 | 0.51 |  |  | Growth Rate (Fibroblast; 0 h, replicate number 1): 0.93; Growth Rate (Fibroblast; 12 h, replicate number 2): 0.29; Growth Rate (Fibroblast; 18 h, replicate number 2): 0.56
6 | CC[C@H](NC(=O)[C@H](C)NC)C(=O)N1C[C@@H](O)C[C@H]1Cc1c(-c2[nH]c3cc(F)ccc3c2C[C@@H]2C[C@H](O)CN2C(=O)[C@H](CC)NC(=O)[C@H](C)NC)[nH]c2cc(F)ccc12 [BIRINAPANT] | 0.67 | 0.87 | 0.62 | 0.97 | 0.9 |  |  |  |  |  | 0.94 |  |  |  |  |  |  |  | 0.98 |  | Growth Rate (Fibroblast; 0 h, replicate number 1): -0.44; Growth Rate (Fibroblast; 0 h, replicate number 2): -0.61; Growth Rate (U2OS; 12 h, replicate number 1): 0.81
7 | CCC(=N\O)/C(C)=C/c1ccc(F)cc1 [A-079] | 0.09 | -0.79 |  | -0.09 |  | 0.33 |  | 0.57 | 0.86 |  |  | -0.97 | 0.16 | 0.89 | 0.78 | 0.79 |  | 0.53 | 1 | 0.02 | Growth Rate (Fibroblast; 0 h, replicate number 2): -0.47
8 | Cc1cn(CCN2CCN(c3ccccc3-c3cc(C#N)cc(C(=O)NCCCN4CCCC4)c3)CC2)c2ccccc12 | -0.62 | -0.59 | -0.46 | -0.49 | -0.45 | -0.47 | -0.38 | -0.39 | -0.68 | -0.71 | -1 | -0.98 | -0.89 | -0.84 | -0.77 | -0.74 | -1 | -0.93 | -0.75 | -0.88 | Growth Rate (Fibroblast; 6 h, replicate number 2): -0.91; Growth Rate (Fibroblast; 12 h, replicate number 1): -0.74; Growth Rate (Fibroblast; 12 h, replicate number 2): -0.87; Growth Rate (Fibroblast; 18 h, replicate number 2): -0.81; Growth Rate (Fibroblast; 24 h, replicate number 1): -0.66; Growth Rate (U2OS; 12 h, replicate number 1): -0.85; Growth Rate (U2OS; 24 h, replicate number 1): -0.72
9 | O=S(=O)(Nc1nncs1)c1cc(Cl)c(Oc2ccc(C(F)(F)F)cc2-c2ccnn2C2CNC2)cc1F | 0.2 |  |  |  |  |  |  |  | 0.41 |  | 0.61 | -0.77 | 0.95 |  | 1 | 0.98 |  |  | 0.95 |  | Growth Rate (U2OS; 24 h, replicate number 1): 0.86
10 | CN1CCN(c2nc(C3=C(c4c[nH]c5ccccc45)C(=O)NC3=O)c3ccccc3n2)CC1 [SOTRASTAURIN] |  |  |  |  |  |  |  |  |  |  | -0.78 | -0.29 |  |  |  |  | -0.61 |  |  | -0.88 | Growth Rate (HEK-293T; 0 h, replicate number 1): -0.3; Growth Rate (Fibroblast; 0 h, replicate number 2): -0.97; Growth Rate (Fibroblast; 12 h, replicate number 1): -1
11 | CCNc1ccc(-c2nn(-c3ccccc3C)c3c2C(C)Cc2nc(NC(=O)OC)sc2-3)cn1.O=C(O)C(F)(F)F (stereo unspecified) | -0.42 | 0.14 | -0.41 | -0.12 | -0.23 | 0.03 | -0.1 | -0.01 | -0.28 | -0.06 | -0.28 |  | 0.13 | 0.24 | 0.25 | 0.07 | -0.93 | 0.5 | 0.27 | -0.81 | Growth Rate (Fibroblast; 6 h, replicate number 2): -0.7; Growth Rate (Fibroblast; 12 h, replicate number 1): -0.55; Growth Rate (Fibroblast; 12 h, replicate number 2): -0.37; Growth Rate (Fibroblast; 18 h, replicate number 2): -0.19; Growth Rate (Fibroblast; 24 h, replicate number 1): -0.11; Growth Rate (U2OS; 12 h, replicate number 1): 0.39; Growth Rate (U2OS; 24 h, replicate number 1): -0.06
12 | CCCC(=O)C1CCN(c2ncnc3c2CN(C(=O)c2ccc(-c4ccccc4)cc2)CC3)CC1 | 0.24 | 0.35 |  | 0.75 |  | 0.82 |  | 0.74 | 0.74 | 0.9 |  |  |  |  |  |  |  | 0.51 | 0.81 | 0.84 | Growth Rate (Fibroblast; 6 h, replicate number 2): -1; Growth Rate (Fibroblast; 12 h, replicate number 2): 0.73; Growth Rate (Fibroblast; 18 h, replicate number 2): 0.93; Growth Rate (U2OS; 12 h, replicate number 1): 0.92; Growth Rate (U2OS; 24 h, replicate number 1): 0.83
